From patent publication US11865126B2, “Method for treating anxiety disorders, headache disorders, and eating disorders with psilocybin” (priority 2019, dated 2024)

How the values were obtained:
[1] = system: subjects with chronic cluster headaches (CCH); assay: Chronic cluster headaches study (headache logs); format: in vivo, human; settings: 0.14 mg/kg perorally x3; same subject
Excerpt: The study took place over a 10 week period which consisted of a baseline observation period, 3 psilocybin sessions, and a follow-up period in subjects with CCH (FIG. 27). Throughout the course of the study, subjects completed questionnaires and headache logs in order to access headache frequency, duration, and severity.
Before the beginning of the study, subjects taking prophylactic medication underwent a 2 week wash-out period to eliminate medication. Subjects then began a baseline observation period lasting 4 weeks during which the subjects received a functional MRI (magnetic resonance imaging) scan. After the observation period, subjects were perorally administered their first dose of 0.14 mg/kg psilocybin. Blood samples were collected during the initial dosing session to establish psilocin plasma concentrations. Over the next two weeks, subjects were administered two additional doses of psilocybin with each dose administered one week apart. The last psilocybin dose was followed by 4 weeks of observation that included a functional MRI scan one week after the last psilocybin dose. Subjects were also contacted 6 and 12 months after the last psilocybin dose to gain information about the duration of potential remission periods. All regular acute treatments were permitted during the study period and recorded in the headache diary. […]

[2] = system: healthy subjects; assay: Toronto Empathy Questionnaire (TEQ); format: in vivo, human
Excerpt: In some embodiments, the Toronto Empathy Questionnaire (TEQ) is utilized to evaluate the safety and/or efficacy of psilocybin. The TEQ represents empathy as a primarily emotional process. […] The TEQ is a brief, reliable and valid instrument for the assessment of empathy. In some embodiments, after treating according to the methods of the disclosure, a subject's TEQ score increases by about 5%, about 10%, about 15%, about 20%, about 25%, about 30%, about 35%, about 40%, about 45%, about 50%, about 55%, about 60%, about 65%, about 70%, about 75%, about 80%, about 85%, about 90%, about 95%, or about 100%, about 110%, about 120%, about 130%, about 140%, about 150%, about 160%, about 170%, about 180%, about 190%, about 200%, about 210%, about 220%, about 230%, about 240%, about 250%, about 260%, about 270%, about 280%, about 290%, or about 300%, or more, compared to prior to treatment.
The following list of outcome measures are non-exhaustive. • a. The short-term change from Baseline (Day −1 [Visit 2]) to Day 7 (Visit 5) in cognitive measures of attention, spatial and working memory and executive function was measured by a composite score of the CANTAB Panel (Spatial Working Memory [SWM], Rapid Visual Information Processing [RVP], Paired Associates Learning [PAL]). • b. The short-term change from Baseline (Day −1 [Visit 2]) to Day 7 (Visit 5) in Social Cognition Panel scales (Pictorial Empathy Test [PET], Reading the Mind in the Eyes Test [RMET], Toronto Empathy Questionnaire [TEQ], Social Value Orientation [SVO], Scale of Social Responsibility [SSR]). • c. The change from Baseline (Day −1 [Visit 2]) to Day 28 (Visit 6) in cognitive measures of attention, spatial and working memory and executive function as measured by a composite score of the CANTAB Panel (SWM, RVP, PAL). • d. The long-term change from Baseline (Day −1 [Visit 2]) to Day 84 (Visit 7) in Social Cognition Panel scales (PET, RMET, TEQ, SVO, SSR). • e. Dose-related differences between cognitive effects of psilocybin at Baseline (Day −1 [Visit 2]), Day 7 (Visit 5) and Day 28 (Visit 6), as measured by a composite score of the CANTAB Panel (SWM, RVP, PAL). • f. Dose-related differences between psychological effects of psilocybin at Baseline (Day −1 [Visit 2]), Day 7 (Visit 5) and Day 84 (Visit 7), as measured by Social Cognition Panel scales (PET, RMET, TEQ, SVO, SSR). • g. Differences in cognitive effects of psilocybin between psilocybin-naïve and experienced subjects at Baseline (Day −1 [Visit 2]), Day 7 (Visit 5) and Day 28 (Visit 6), as measured by a composite score of the CANTAB Panel (SWM, RVP, PAL). • h. Differences in Positive and Negative Affect Schedule (PANAS) after study drug administration on Day 0 (Visit 3). • i. Differences between psilocybin and placebo in the Emotion Recognition Test (ERT), Intra-Extra Dimensional Set Shift (IED), One Touch Stockings (OTS), Verbal Fluency and Digit Span Forward at Day 7 (Visit 5). • j. A composite score of the CANTAB Panel, including the following tests: • i. Spatial Working Memory (SWM) (performed at Visit 2, Visit 5, and Visit 6). • ii. Rapid Visual Information Processing (RVP) (performed at Visit 2, Visit 5, and Visit 6). • iii. Paired Associates Learning (PAL) (performed at Visit 2, Visit 5, and Visit 6). • k. Cognitive Flexibility Panel • i. Emotion Recognition Task (ERT) (performed at Visit 5). • ii. Intra-Extra Dimensional Set Shift (IED) (performed at Visit 5). • iii. One Touch Stockings (OTS) (performed at Visit 5). • iv. Verbal Fluency (performed at Visit 5). • v. Digit Span Forward (performed at Visit 5). • l. Five Dimension Altered States of Consciousness questionnaire (5D-ASC) (performed at Visit 3). • m. PANAS (performed at Visit 2 and Visit 3). • n. NEO-Five Factor Inventory (NEO-FFI) (performed at Visit 2, Visit 5, and Visit 7). • o. Symptom Checklist-90 item (SCL-90) (performed at Visit 2, Visit 5, and Visit 7). • p. […]

[3] = Binge eating model: body weight; settings: 1, 3 and 10 mg/kg IP

For `CN(C)CCc1c[nH]c2cccc(OP(=O)(O)O)c12` [psilocybin], the “Cluster headache with pain greater than normal” value [1] was “at least one very painful cluster headache”, the “TEQ change from baseline, LS mean difference Psilocybin 10 mg - Placebo” value ([2]; Day 7, MMRM) was 0.1 and the “TEQ change from baseline, LS mean difference Psilocybin 25 mg - Placebo” value ([2]; Day 7, MMRM) was 0.2. The “TEQ change from baseline, LS mean difference Psilocybin 25 mg-10 mg” value ([2]; Day 7, MMRM) was 0.1, the “TEQ change from baseline, LS mean difference Psilocybin 10 mg - Placebo” value ([2]; Day 84, MMRM) was 0.1 and the “TEQ change from baseline, LS mean difference Psilocybin 25 mg - Placebo” value ([2]; Day 84, MMRM) was 0.1. The “TEQ change from baseline, LS mean difference Psilocybin 25 mg-10 mg” value ([2]; Day 84, MMRM) was 0.0, the “TEQ change from baseline, LS mean” value ([2]; Psilocybin 10 mg, Day 84, MMRM) was −0.1 and the “TEQ change from baseline, LS mean” value ([2]; Psilocybin 25 mg, Day 84, MMRM) was −0.0. For the same compound, the Overall body weight [3] was “not affected”.
